Results as given in patent US12448369B2 (Edgewise Therapeutics, Inc., priority 2023, dated 2025).

Experiments:
[1] = system: Porcine atria myofibrils (atrial myosin ATPase); experiment: Myofibril ATPase assay, porcine atria myofibrils; type: biochemical; details: porcine atria myofibrils
Experimental: (§1) Example 1. Myofibril ATPase Assay
(§2) Myofibril ATPase assays are known in the art to be useful in evaluating small molecules for the treatment of HCM and other cardiac indications. Myosin ATPase activity is assessed by using a coupled reaction system, in which ADP generated by the myosin ATPase function is coupled to the disappearance of NADH through the pyruvate kinase/lactate dehydrogenase (PK-LDH) system. ATPase activity produces ADP, which is used as a substrate for PK to produce pyruvate and regenerate ATP. The pyruvate is then used as a substrate by LDH to oxidize NADH to NAD+. The rate of the reaction is monitored through the time-dependent disappearance of NADH using absorbance at 340 nm, which, when the couple system is in stoichiometric excess, is directly correlated to the ATPase activity of the myosin. Inhibition of ATPase activity by the assayed compounds is indicated by a reduced rate of NADH loss, relative to vehicle-treated controls, over the experimental time window. Activation of ATPase activity by the assayed compounds is indicated by an increased rate of NADH loss, relative to vehicle-treated controls, over the experimental time window. Rabbit Psoas, Porcine atria, and Porcine ventricle are the primary sources of myofibril material.
(§3) Materials: The following stock solutions and reagents were used in the Myofibril ATPase Assay:
(§4) Stock Solutions of pCa buffer. Combine PIPES, CaCl2, and EGTA solutions with water. Adjust pH to 7.0 and bring final volume to 100 mL.
(§5) Buffer A & Buffer B. Prepare buffers A and B according to the table below.
(§6) Myofibril ATPase Assay Procedure: BSA, ATP, NADH, PEP, and DTT solutions were thawed at room temperature, then transferred to ice. Pellet-frozen myofibrils were transferred with approximately twice the required volume into a sufficiently large tube and capped. Myofibrils were thawed by rolling in a water bath for approximately 15 min at room temperature and cooled on ice. Buffers A and B were prepared by adjusting volumes as necessary for required number of wells and stored on ice. 0.5 μL of the compounds to be assayed were added into wells. 25 μL of Buffer A was dispensed into the wells, followed by 25 μL of Buffer B. The wells were measured for absorbance at 340 nm, using a kinetic protocol in which the wells are read every 1.5-2 min for 75 min. Assay data analysis was performed using a python script that filtered the raw data to retain those points falling between a starting and ending time and between a maximum and minimum absorbance, then used the filtered time-domain 340 nm absorbance data in each well to calculate a slope via linear regression analysis in units of mAU/min. Compound slopes were normalized between 100% and 0% activity, where 100% represented the slope of wells containing only compound vehicle, and fit to a 4-parameter logistic model. In addition to the fit parameters, the EC25% values were calculated, relative to the 100% normalized value. Additionally, the Y125 values were calculated for compounds that increased myosin ATP-ase activity. Fit parameters, calculated effective concentrations, filtered raw data, and calculated slopes were exported, in addition to compound-specific graphs of normalized ATPase activity versus concentration in μM. Each value reported in Table 5, Table 6, and Table 7 is either a Y75 value or a Y125 value. Values without a double cross sign, ‡, are Y75 values, which reflect the concentration required to reduce myosin ATP-ase activity by 25% (e.g., Y-axis activity value is 75% of initial value), relative to myosin ATP-ase activity in the absence of exogenous compound.
(§7) Myofibrils from various animals and tissue types were acquired from a variety of sources: rabbit psoas muscle was purchased from Pel-Freez Biologicals (Rogers, AR) and porcine cardiac muscle was purchased from Exemplar Genetics. All myofibrils were prepared using a method based upon those described in Herrmann et al. (1993) and summarized here. […]

[2] = molecular target: T1, Porcine ventricle myofibrils (ventricular myosin ATPase) (Sus scrofa, UniProt P79293); experiment: Myofibril ATPase assay, porcine ventricle myofibrils; type: biochemical, porcine (Yucatan minipigs); details: porcine ventricle myofibrils
T1 construct: Myofibrils from porcine cardiac muscle was isolated from the left ventricle of Yucatan minipigs; tissue Exemplar Genetics; host or cells: left ventricle of Yucatan minipigs, myofibrils prepared in house
Experimental: as §1, §2, §3, §4, §5, §6
Cardiac Myofibril Isolation:
Myofibrils from porcine cardiac muscle was isolated from the left ventricle of Yucatan minipigs. Myofibrils were prepared using a method based upon those described in Herrmann et al. (1993) and summarized here. […]

[3] = system: Rabbit Psoas myofibrils (skeletal myosin ATPase); experiment: Myofibril ATPase assay, rabbit psoas (skeletal) myofibrils; type: biochemical; details: rabbit psoas myofibrils
Experimental: as §1, §2, §3, §4, §5, §6
Skeletal Myofibril Isolation:
as §7

[4] = Y75 value (75% activity relative to no compound)
[5] = ‡ Y125 value, not a Y75 value (125% activity relative to no compound)

T1 sequence (P79293 whole entry): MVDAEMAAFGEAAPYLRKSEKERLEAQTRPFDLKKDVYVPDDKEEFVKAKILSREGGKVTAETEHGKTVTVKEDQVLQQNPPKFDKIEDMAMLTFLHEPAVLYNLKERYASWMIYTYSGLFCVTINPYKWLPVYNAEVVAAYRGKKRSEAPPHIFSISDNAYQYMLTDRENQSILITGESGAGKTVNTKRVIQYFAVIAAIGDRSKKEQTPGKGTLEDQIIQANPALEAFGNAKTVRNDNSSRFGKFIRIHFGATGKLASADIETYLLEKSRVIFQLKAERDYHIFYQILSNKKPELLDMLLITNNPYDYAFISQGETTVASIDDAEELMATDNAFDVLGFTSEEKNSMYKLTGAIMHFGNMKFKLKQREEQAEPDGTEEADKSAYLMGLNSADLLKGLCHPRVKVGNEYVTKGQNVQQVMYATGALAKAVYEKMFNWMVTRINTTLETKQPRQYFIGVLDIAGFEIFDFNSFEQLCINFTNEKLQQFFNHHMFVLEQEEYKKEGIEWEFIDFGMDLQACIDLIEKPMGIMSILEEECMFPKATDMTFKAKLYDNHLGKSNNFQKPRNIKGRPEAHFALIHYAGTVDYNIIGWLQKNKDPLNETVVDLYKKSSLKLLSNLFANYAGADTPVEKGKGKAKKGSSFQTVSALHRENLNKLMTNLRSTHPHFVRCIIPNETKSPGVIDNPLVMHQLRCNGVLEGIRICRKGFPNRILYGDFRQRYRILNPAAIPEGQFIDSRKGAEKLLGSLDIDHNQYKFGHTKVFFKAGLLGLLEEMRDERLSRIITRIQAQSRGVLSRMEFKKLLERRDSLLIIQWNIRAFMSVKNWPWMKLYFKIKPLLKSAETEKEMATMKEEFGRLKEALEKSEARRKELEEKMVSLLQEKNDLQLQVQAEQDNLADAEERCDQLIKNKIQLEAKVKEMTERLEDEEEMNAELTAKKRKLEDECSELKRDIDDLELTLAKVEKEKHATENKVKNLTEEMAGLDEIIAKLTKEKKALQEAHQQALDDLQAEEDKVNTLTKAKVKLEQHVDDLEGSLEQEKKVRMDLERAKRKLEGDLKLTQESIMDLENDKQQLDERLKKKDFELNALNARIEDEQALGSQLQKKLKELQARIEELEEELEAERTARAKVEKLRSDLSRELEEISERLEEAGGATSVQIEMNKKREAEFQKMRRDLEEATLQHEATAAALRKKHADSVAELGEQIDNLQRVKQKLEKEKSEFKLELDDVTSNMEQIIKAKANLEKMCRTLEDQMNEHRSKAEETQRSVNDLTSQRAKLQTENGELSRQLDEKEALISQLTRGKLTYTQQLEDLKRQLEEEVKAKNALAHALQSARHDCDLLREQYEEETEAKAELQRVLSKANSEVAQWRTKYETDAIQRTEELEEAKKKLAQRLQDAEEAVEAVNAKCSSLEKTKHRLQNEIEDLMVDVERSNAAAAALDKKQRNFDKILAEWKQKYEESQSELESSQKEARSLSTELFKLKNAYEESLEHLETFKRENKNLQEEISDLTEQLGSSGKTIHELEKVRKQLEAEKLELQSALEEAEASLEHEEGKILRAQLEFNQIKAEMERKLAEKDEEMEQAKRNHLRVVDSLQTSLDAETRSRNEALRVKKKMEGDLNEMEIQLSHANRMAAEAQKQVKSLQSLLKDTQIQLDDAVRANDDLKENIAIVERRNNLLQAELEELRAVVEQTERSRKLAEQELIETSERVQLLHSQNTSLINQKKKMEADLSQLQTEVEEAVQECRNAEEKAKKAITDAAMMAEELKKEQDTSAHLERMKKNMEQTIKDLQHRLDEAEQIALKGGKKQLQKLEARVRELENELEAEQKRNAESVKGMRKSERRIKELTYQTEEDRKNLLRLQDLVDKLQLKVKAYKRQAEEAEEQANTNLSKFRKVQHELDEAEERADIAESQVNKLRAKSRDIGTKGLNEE

| Structure (SMILES) | Atrial EC25 ([1]; Y75 value (no ‡ mark)) [µM] | Ventricular EC25 ([2]; Y75 value (no ‡ mark)) [µM] | Skeletal EC25 ([3]; Y75 value (no ‡ mark)) [µM] | Atrial EC25 [1, 4] [µM] | Ventricular EC25 ([2]; Y75 value) [µM] | Skeletal EC25 ([3]; Y75 value) [µM] | Skeletal EC25 [3, 5] |
| --- | --- | --- | --- | --- | --- | --- | --- |
| COc1ccc2[nH]c(=O)c(CC(=O)N[C@H](C)c3ncc(F)cc3F)cc2c1C (single isomer, unassigned) [compound 79] | 100.00 | 100.00 | 100.00 | – | – | – | – |
| Cc1nccc2[nH]c(=O)c(CC(=O)N[C@@H](CO)c3ccccn3)c(C)c12 (single isomer, unassigned) [compound 317] | – | – | – | 100.00 | 100.00 | 100.00 | – |
| C[C@@H](NC(=O)Cc1c(C2CC2)c2cc(C#N)ccc2[nH]c1=O)c1ncc(C#N)cc1F [compound 1151] | 21.52 | 21.67 | 10.08 | – | – | – | – |
| C[C@@H](NC(=O)Cc1c(C2CC2)c2c(F)c(F)ccc2[nH]c1=O)c1ccc(C#N)nn1 (single isomer, unassigned) [compound 2065] | 100.00 | 100.00 | 1.10 | – | – | – | – |
| Cc1c(C2(C(=O)N[C@@H](C)c3cccc(C#N)n3)CC2)c(=O)[nH]c2ccc(F)c(F)c12 (single isomer, unassigned) [compound 2548] | 45.39 | 100.00 | – | – | – | – | 45.96‡ μM |
| Cc1cc([C@H](C)NC(=O)Cc2cc3c(C#N)nccc3[nH]c2=O)ncc1F [compound 471] | – | – | – | 100.00 | 67.58 | 100.00 | – |
| Cc1nccc2[nH]c(=O)c(CC(=O)N[C@@H]3CCc4cc(C#N)cnc43)c(C)c12 (single isomer, unassigned) [compound 233] | – | – | – | 100.00 | 100.00 | 5.72 | – |
| Cc1c(C(F)(F)C(=O)N[C@@H](CO)c2ncc(C#N)cc2F)c(=O)[nH]c2ccnc(C#N)c12 (single isomer, unassigned) [compound 3504] | – | – | – | 0.77 | 4.90 | 1.04 | – |
| Cc1nccc2[nH]c(=O)c(CC(=O)N[C@H](C)c3ccc(C#N)cc3F)c(Cl)c12 [compound 151] | – | – | – | 0.44 | 0.87 | 0.11 | – |
| Cc1ccncc1[C@@H](C)NC(=O)Cc1c(C)c2cc(F)ccc2[nH]c1=O [compound 1048] | 0.29 | 1.73 | 2.2 | – | – | – | – |
| C[C@H](NC(=O)[C@@H](C)c1cc2c(F)c(F)ccc2[nH]c1=O)c1ccc(F)cc1F (single isomer, unassigned) [compound 110] | 0.52 | 42.60 | 100.00 | – | – | – | – |
| Cc1c(CC(=O)N[C@H](C)c2ccc(C#N)cc2F)c(=O)[nH]c2ccc(F)c(F)c12 [compound 65] | 0.23 | 0.22 | 0.02 | – | – | – | – |
| Cc1nccc2[nH]c(=O)c(CC(=O)N[C@H](C)c3ncc(C#N)cn3)c(C)c12 [compound 482] | – | – | – | 28.27 | 63.17 | 100.00 | – |
| Cc1c(C2(C(=O)NC(C)c3cccc(C#N)n3)CC2)c(=O)[nH]c2ccc(F)cc12 (single isomer, unassigned) [Compound 2580] | 4.52 | 100.00 | – | – | – | – | 17.17‡ μM |
| C[C@H](NC(=O)[C@@H](C)c1cc2c(Cl)c(O)ccc2[nH]c1=O)c1ccc(F)cc1F (single isomer, unassigned) [compound 88] | 83.97 | 88.39 | 74.46 | – | – | – | – |
| Cc1c(F)ccc2[nH]c(=O)c(C(F)(F)C(=O)N[C@H](C)c3ncc(C#N)cn3)c(C#N)c12 (single isomer, unassigned) [Compound 2511] | 0.76 | 2.64 | 0.28 | – | – | – | – |
| Cc1c(CC(=O)N[C@H](CO)c2ccc(F)cc2F)c(=O)[nH]c2ccc(C(F)(F)F)nc12 [compound 216] | – | – | – | 100.00 | 100.00 | 100.00 | – |
| Cc1c(CC(=O)N[C@H](C)c2cnc(C#N)nc2)c(=O)[nH]c2ccc(C(F)(F)F)nc12 [compound 457] | – | – | – | 30.66 | 100.00 | 100.00 | – |
| Cc1c(C(F)(F)C(=O)N[C@H](C)c2ncc(C#N)cc2F)c(=O)[nH]c2cccc(C#N)c12 (single isomer, unassigned) [compound 2501] | 0.17 | 0.45 | 0.15 | – | – | – | – |
| Cc1nccc2[nH]c(=O)c(CC(=O)N[C@H](CCO)c3ccc(F)cc3F)c(C)c12 (single isomer, unassigned) [compound 341] | – | – | – | 100.00 | 100.00 | 100.00 | – |
| Cc1nccc2[nH]c(=O)c(CC(=O)N[C@H](C)c3ccc(C#N)cc3F)c(C#N)c12 [compound 153] | – | – | – | 19.40 | 100.00 | 3.09 | – |
| COc1nccc2[nH]c(=O)c(CC(=O)N[C@@H](C)c3ccc(F)cc3F)c(C(F)(F)F)c12 [compound 423] | – | – | – | 100.00 | 100.00 | 0.34 | – |
| C[C@H](NC(=O)Cc1cc2cc(C3CC3)ccc2[nH]c1=O)c1ccc(F)cc1F [compound 117] | 100.00 | 100.00 | 6.32 | – | – | – | – |
| C[C@H](NC(=O)Cc1cc2cc(F)c(F)cc2[nH]c1=O)c1cnc(C#N)nc1 [compound 1075] | 16.51 | 15.41 | 8.39 | – | – | – | – |
| Cc1cc(C#N)ncc1[C@@H](C)NC(=O)Cc1c(C)c2c(C)c(F)ccc2[nH]c1=O [compound 1044] | 0.06 | 0.10 | 0.02 | – | – | – | – |
| Cc1c(CC(=O)N[C@H](C)c2ncc(F)cc2F)c(=O)[nH]c2ccnc(C#N)c12 (single isomer, unassigned) [compound 304] | – | – | – | 17.26 | 100.00 | 1.57 | – |
